# Experimental data: article PMC6492180, “Cytome micronucleus assays with a metabolically competent human derived liver cell line (Huh6): A promising approach for routine testing of chemicals?” (Environmental and Molecular Mutagenesis, 2018)
# Read-outs that look alike come from different tables or passages of the source. Marks after values point to notes of the source that are not given here.
# How the values were obtained:
# [1] = test system: Huh6 cells
# Experimental: All experiments were performed in duplicate.
# 3.8–4.0 × 10^5 cells per well were seeded into 6‐well plates with 3 mL of RPMI (4% FBS) for 12 hr, then dilutions of stock solutions of the diagnostic mutagens were added for different time periods (4, 24, and 48 hr). In each experimental series solvent controls were included. Subsequently, the cells were washed twice with 3.0 mL medium. […] Finally, the cells were washed and trypsinised. Afterwards the cells were washed twice with 8.0 mL RPMI and collected on slides by cytocentrifugation (600 rpm, 5 min). The slides were air dried, fixed, and stained with DiffQuick according to the instructions of the manufacturer. For each experimental point, two cultures were tested per dose. From each culture ≥1,000 BN cells were evaluated under 400‐fold magnification (Nikon Photophot‐FXA, Tokyo, Japan). At least 2,000 binucleated cells were analyzed per dose for the determination of the different nuclear anomalies (MN, NBuds, and NBs).
# The experiments were performed as described in the previous chapter. The cells were exposed only to one dose of the different mutagens and were cultivated after the seeding in 6‐well plates which contained 4% or 10% FBS in RPMI, respectively.
# Data were evaluated by generalized linear model with Poisson counts. Chi‐square tests for overdispersion were applied. […] P values ≤0.05 were considered statistically significant.
# ^150-60 000 cells were seeded in 6 well plates with 3 ml RPMI (4% FBS), subsequently different solutions of the test compound (dissolved in medium) were added. After treatment for different time periods, the cells was washed and processed as described in the Material and Method section. […] From each culture 1000 binoculated cells were evaluated. BN-MN – number of micronucleated cells; MN - total number of micronuclei; CBPI – cytokinesis-block proliferation index
# ^1The experiments were conducted essentially as described in the footnote of Table S1A-I. *p≤0.05
# [2] = test system: HepaRG; settings: cited from earlier work
# [3] = test system: HepG2; settings: cited from earlier work
# [4] = test system: Hep3B; settings: cited from earlier work
# [5] = test system: Human lymphocytes; settings: cited from earlier work
# [6] = ref IARC (2018); cited from earlier work
# [7] = 10% FBS, 24 hr treatment, 50 µM
# [8] = 10% FBS, 24 hr treatment, 100 µM
# [9] = HepaRG, ref Le Hegarat et al., 2010
compound,measurement,setting,value
"Cn1c(N)nc2ncc(-c3ccccc3)cc21 [PhiP, 2‐Amino‐1‐methyl‐6‐phenylimidazo[4,5‐b]pyridine]",MN effects after 24 hr (or longer) compared with 4 hr treatment (in words),[1]; 4% FBS,more pronounced effects
same,BN-MN (number of micronucleated cells),"[1]; 4% FBS, 4hrs, 25 µM",23.5 ± 0.7 ‰
same,Bridges,"[1]; 4% FBS, 4hrs, 25 µM",0.5 ± 0.7 ‰
same,Buds,"[1]; 4% FBS, 4hrs, 25 µM",18.0 ± 5.7 ‰
same,CBPI,"[1]; 4% FBS, 4hrs, 25 µM",1.7 ± 0.1
same,MN (total number of micronuclei),"[1]; 4% FBS, 4hrs, 25 µM",23.5 ± 0.7 ‰
same,BN-MN (number of micronucleated cells),"[1]; 4% FBS, 4hrs, 50 µM",22.5 ± 2.1 ‰
same,Bridges,"[1]; 4% FBS, 4hrs, 50 µM",2.0 ± 1.4 ‰
same,Buds,"[1]; 4% FBS, 4hrs, 50 µM",19.0 ± 7.1 ‰
same,CBPI,"[1]; 4% FBS, 4hrs, 50 µM",1.6 ± 0.2
same,MN (total number of micronuclei),"[1]; 4% FBS, 4hrs, 50 µM",22.5 ± 2.1 ‰
same,BN-MN (number of micronucleated cells),"[1]; 4% FBS, 4hrs, 100 µM",26 ± 1.4 ‰
same,Bridges,"[1]; 4% FBS, 4hrs, 100 µM",1.5 ± 0.7 ‰
same,Buds,"[1]; 4% FBS, 4hrs, 100 µM",23.5 ± 6.4 ‰
same,CBPI,"[1]; 4% FBS, 4hrs, 100 µM",1.7 ± 0.0
same,MN (total number of micronuclei),"[1]; 4% FBS, 4hrs, 100 µM",28 ± 1.4 ‰
same,BN-MN (number of micronucleated cells),"[1]; 4% FBS, 24hrs, 25 µM",17.5 ± 2.1 ‰
same,Bridges,"[1]; 4% FBS, 24hrs, 25 µM",0.0 ± 0.0 ‰
same,Buds,"[1]; 4% FBS, 24hrs, 25 µM",10.5 ± 0.7 ‰
same,CBPI,"[1]; 4% FBS, 24hrs, 25 µM",1.9 ± 0.1
same,MN (total number of micronuclei),"[1]; 4% FBS, 24hrs, 25 µM",17.5 ± 2.1 ‰
same,BN-MN (number of micronucleated cells),"[1]; 4% FBS, 24hrs, 50 µM",26.5 ± 0.7* ‰
same,Bridges,"[1]; 4% FBS, 24hrs, 50 µM",1.5 ± 0.7 ‰
same,Buds,"[1]; 4% FBS, 24hrs, 50 µM",24.5 ± 0.7* ‰
same,CBPI,"[1]; 4% FBS, 24hrs, 50 µM",1.8 ± 0.0
same,MN (total number of micronuclei),"[1]; 4% FBS, 24hrs, 50 µM",30.0 ± 1.4* ‰
same,BN-MN (number of micronucleated cells),"[1]; 4% FBS, 24hrs, 100 µM",49.5 ± 2.1* ‰
same,Bridges,"[1]; 4% FBS, 24hrs, 100 µM",3.0 ± 0.0 ‰
same,Buds,"[1]; 4% FBS, 24hrs, 100 µM",34.0 ± 1.4* ‰
same,CBPI,"[1]; 4% FBS, 24hrs, 100 µM",1.9 ± 0.0
same,MN (total number of micronuclei),"[1]; 4% FBS, 24hrs, 100 µM",49.5 ± 2.1* ‰
same,BN-MN (number of micronucleated cells),"[1]; 4% FBS, 48hrs, 25 µM",20.0 ± 1.4 ‰
same,Bridges,"[1]; 4% FBS, 48hrs, 25 µM",0.0 ± 0.0 ‰
same,Buds,"[1]; 4% FBS, 48hrs, 25 µM",20.5 ± 3.5 ‰
same,CBPI,"[1]; 4% FBS, 48hrs, 25 µM",1.9 ± 0.1
same,MN (total number of micronuclei),"[1]; 4% FBS, 48hrs, 25 µM",20.5 ± 0.7 ‰
same,BN-MN (number of micronucleated cells),"[1]; 4% FBS, 48hrs, 50 µM",20.5 ± 3.5 ‰
same,Bridges,"[1]; 4% FBS, 48hrs, 50 µM",0.5 ± 0.7 ‰
same,Buds,"[1]; 4% FBS, 48hrs, 50 µM",22.0 ± 4.2 ‰
same,CBPI,"[1]; 4% FBS, 48hrs, 50 µM",1.9 ± 0.0
same,MN (total number of micronuclei),"[1]; 4% FBS, 48hrs, 50 µM",21.5 ± 3.5 ‰
same,BN-MN (number of micronucleated cells),"[1]; 4% FBS, 48hrs, 100 µM",22.0 ± 1.4 ‰
same,Bridges,"[1]; 4% FBS, 48hrs, 100 µM",0.5 ± 0.7 ‰
same,Buds,"[1]; 4% FBS, 48hrs, 100 µM",29.5 ± 0.7* ‰
same,CBPI,"[1]; 4% FBS, 48hrs, 100 µM",1.8 ± 0.2
same,MN (total number of micronuclei),"[1]; 4% FBS, 48hrs, 100 µM",24.0 ± 1.4 ‰
same,BN-MN (number of micronucleated cells),[1]; [7],50.0 ± 2.8*
same,Bridges,[1]; [7],1.0 ± 1.4
same,Buds,[1]; [7],50.0 ± 1.4
same,CBPI,[1]; [7],2.0 ± 0.1
same,MN (total number of micronuclei),[1]; [7],56.5 ± 2.1*
same,BN-MN (number of micronucleated cells),[1]; [8],55.0 ± 11.3*
same,Bridges,[1]; [8],1.5 ± 0.7
same,Buds,[1]; [8],60.0 ± 7.1*
same,CBPI,[1]; [8],1.8 ± 0.0
same,MN (total number of micronuclei),[1]; [8],61 ± 12.7*
same,MN frequencies with 10% serum compared with 4% serum (in words),[1]; 24 hr treatment,stronger effects
same,Lowest effective concentration (LOEC) in micronucleus experiments,[1]; Huh6,50.0 µM
same,Lowest effective concentration (LOEC) in micronucleus experiments,[2]; [9],Negative
same,NOEC (highest no observable effect concentration tested),[2]; [9],320.0 µM
same,Lowest effective concentration (LOEC) in micronucleus experiments,"[3]; HepG2, ref Majer et al., 2004","25.0 (Majer et al., 2004) μM"
same,Lowest effective concentration (LOEC) in micronucleus experiments,"[4]; Hep3B, ref Majer et al., 2004",Negative
same,NOEC (highest no observable effect concentration tested),"[4]; Hep3B, ref Majer et al., 2004",300.0 µM
same,Lowest effective concentration (LOEC) in micronucleus experiments,"[5]; Human lymphocytes, + S9, ref Katic et al., 2010","2.5 + S9 (Katic et al., 2010) μM"
same,IARC classification,[6],Formation of guanine adducts; activation: CYP1A2 and SULT; detoxification: GSTs; IARC: Group 2B
Aflatoxin B1 [AFB1],Lowest effective concentration (LOEC) in micronucleus experiments,[1],10.0 µM
same,MN effects after 24 hr (or longer) compared with 4 hr treatment (in words),[1],similar
same,MN frequencies with 10% serum compared with 4% serum (in words),[1],stronger effects
same,Lowest effective concentration (LOEC) in micronucleus experiments,[2],"0.25 (Le Hegarat et al., 2010) μM"
same,"MN formation with the longer exposure time, treatment for 1 or 7 days (in words)",[2],stronger effects
same,Lowest effective concentration (LOEC) in micronucleus experiments,[3],"0.5 (Josse et al., 2012) μM"
same,Lowest effective concentration (LOEC) in micronucleus experiments,[4],"0.5 (Majer et al., 2004) μM"
same,Lowest effective concentration (LOEC) in micronucleus experiments,[5],"0.1 + S9 (Miller et al., 1998) μM"
